Measured values as given in PMC5096949 (Toxicology letters, 2016).
Entries after “also recorded” stand apart in the source; their conditions may differ.

How the values were obtained:
[1] = biological target: T1, Human Recombinant hCE1 (carboxylesterase 1) (Homo sapiens, UniProt P23141); test: Esterase inhibition, fluorimetric assay with CMNA substrate; type: biochemical
T1 sequence (P23141 18-567): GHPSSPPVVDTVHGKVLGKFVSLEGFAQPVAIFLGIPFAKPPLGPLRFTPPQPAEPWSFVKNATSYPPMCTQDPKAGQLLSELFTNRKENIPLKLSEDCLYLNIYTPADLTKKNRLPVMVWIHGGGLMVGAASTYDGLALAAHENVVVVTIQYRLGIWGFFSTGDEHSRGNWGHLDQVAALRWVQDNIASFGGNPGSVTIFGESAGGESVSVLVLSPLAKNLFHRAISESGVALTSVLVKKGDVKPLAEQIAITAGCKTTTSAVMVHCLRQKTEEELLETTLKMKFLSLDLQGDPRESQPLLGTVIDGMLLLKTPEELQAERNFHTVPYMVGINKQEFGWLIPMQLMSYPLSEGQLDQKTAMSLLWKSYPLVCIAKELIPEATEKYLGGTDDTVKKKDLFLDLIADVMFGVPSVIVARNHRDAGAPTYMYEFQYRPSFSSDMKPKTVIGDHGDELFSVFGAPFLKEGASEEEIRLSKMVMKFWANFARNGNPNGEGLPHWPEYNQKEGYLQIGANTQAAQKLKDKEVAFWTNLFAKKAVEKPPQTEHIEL

[2] = biological target: T2, Human Recombinant hCE2 (carboxylesterase 2) (Homo sapiens, UniProt O00748); test: as above; type: biochemical
T2 sequence (O00748 27-559): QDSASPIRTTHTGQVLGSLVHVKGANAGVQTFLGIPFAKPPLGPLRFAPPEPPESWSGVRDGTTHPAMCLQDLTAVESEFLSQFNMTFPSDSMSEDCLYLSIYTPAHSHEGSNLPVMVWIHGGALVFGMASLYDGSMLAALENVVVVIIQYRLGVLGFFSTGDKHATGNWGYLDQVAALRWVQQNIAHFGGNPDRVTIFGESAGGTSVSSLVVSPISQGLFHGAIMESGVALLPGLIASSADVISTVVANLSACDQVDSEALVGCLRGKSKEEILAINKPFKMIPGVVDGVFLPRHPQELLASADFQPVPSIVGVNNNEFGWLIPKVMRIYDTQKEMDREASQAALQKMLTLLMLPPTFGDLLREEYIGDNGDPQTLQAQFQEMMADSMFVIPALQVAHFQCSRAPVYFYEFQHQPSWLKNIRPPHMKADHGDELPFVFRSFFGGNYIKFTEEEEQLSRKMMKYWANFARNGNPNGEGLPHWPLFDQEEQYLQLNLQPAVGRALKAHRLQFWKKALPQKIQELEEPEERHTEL

[3] = biological target: T3, Human Recombinant AADAC (arylacetamide deacetylase) (Homo sapiens, UniProt P22760); test: as above; type: biochemical
T3 sequence (P22760 1-399): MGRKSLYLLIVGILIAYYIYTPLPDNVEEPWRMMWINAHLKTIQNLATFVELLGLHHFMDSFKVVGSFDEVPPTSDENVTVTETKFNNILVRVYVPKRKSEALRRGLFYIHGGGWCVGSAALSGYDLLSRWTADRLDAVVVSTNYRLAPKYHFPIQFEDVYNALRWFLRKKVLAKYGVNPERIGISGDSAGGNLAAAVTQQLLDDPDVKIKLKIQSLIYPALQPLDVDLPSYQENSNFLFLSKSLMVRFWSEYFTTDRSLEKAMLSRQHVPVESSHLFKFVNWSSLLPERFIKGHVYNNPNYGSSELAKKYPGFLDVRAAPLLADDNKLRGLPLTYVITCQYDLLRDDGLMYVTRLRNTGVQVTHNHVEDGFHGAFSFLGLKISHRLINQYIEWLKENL

[4] = tested on: 3T3-L1 cells; test: 3T3-L1 adipocyte differentiation, Oil Red O staining of lipid accumulation; type: cell-based, Murine; conditions: for effect on AEA-mediated adipocyte differentiation (Oil Red O): 10 μM compound, co-treatment with AEA 10 μM, 7 days; for adipocyte differentiation / lipid accumulation (Oil Red O staining): 1, 10, 50 μM for 7 days
[5] = biological target: T4, Mouse Brain Microsomes (FAAH) (Mus musculus, UniProt O08914); test: FAAH inhibition in brain microsomes, OMP hydrolysis
T4 sequence (O08914 1-579): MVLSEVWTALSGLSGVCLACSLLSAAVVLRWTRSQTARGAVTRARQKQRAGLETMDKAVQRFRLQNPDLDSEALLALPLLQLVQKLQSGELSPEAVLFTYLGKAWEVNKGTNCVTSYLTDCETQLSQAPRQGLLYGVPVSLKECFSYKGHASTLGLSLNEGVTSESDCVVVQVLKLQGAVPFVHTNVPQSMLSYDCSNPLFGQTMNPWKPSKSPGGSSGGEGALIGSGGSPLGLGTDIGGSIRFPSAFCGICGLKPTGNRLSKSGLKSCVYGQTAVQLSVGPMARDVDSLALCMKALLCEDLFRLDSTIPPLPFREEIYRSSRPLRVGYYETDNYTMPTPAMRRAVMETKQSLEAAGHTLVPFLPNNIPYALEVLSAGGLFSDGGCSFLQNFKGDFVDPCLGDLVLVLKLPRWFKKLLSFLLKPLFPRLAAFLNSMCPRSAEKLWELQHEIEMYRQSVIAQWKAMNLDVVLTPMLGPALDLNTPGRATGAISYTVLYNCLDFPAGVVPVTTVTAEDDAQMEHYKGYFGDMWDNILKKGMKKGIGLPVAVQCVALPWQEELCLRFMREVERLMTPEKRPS

[6] = tested on: PPARγ, C/EBPα and FABP4 mRNA expression; test: RT-PCR of adipocyte marker genes in 3T3-L1 cells; type: cell-based, Murine; conditions: for effect on AEA-induced adipocyte marker expression: 3T3-L1, 10 μM compound, co-treatment with AEA 10 μM; for PPARγ, C/EBPα and FABP4 mRNA expression: 3T3-L1, 1, 10, 50 μM for 7 days, n = 3
[7] = biological target: T5, Human Recombinant FAAH (fatty acid amide hydrolase) (Homo sapiens, UniProt O00519); test: FAAH inhibition, fluorimetric assay with OMP substrate, recombinant enzyme; type: biochemical; conditions: for activity / potency towards FAAH (in words): recombinant FAAH; for time-dependence of FAAH inhibition: pre-incubation of enzyme with inhibitor up to 1 h
T5 sequence (O00519 1-579): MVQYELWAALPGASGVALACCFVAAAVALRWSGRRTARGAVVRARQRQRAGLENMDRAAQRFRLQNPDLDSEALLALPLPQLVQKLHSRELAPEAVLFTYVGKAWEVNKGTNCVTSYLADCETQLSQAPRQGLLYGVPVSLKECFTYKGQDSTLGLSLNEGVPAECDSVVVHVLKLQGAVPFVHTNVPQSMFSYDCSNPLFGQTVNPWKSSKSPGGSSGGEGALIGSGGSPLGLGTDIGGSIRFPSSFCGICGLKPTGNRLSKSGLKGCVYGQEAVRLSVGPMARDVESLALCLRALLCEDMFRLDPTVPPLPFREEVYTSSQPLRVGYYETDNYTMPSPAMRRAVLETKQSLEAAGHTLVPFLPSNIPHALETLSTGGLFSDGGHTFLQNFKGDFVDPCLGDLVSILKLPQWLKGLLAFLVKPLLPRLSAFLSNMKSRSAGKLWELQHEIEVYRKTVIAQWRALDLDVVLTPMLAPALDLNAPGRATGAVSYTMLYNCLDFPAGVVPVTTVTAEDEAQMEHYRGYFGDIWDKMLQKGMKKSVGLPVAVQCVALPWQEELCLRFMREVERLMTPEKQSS

[8] = biological target: T6, Rat Brain Microsomes (FAAH) (Rattus norvegicus, UniProt P97612); test: FAAH inhibition in brain microsomes, OMP hydrolysis
T6 sequence (P97612 1-579): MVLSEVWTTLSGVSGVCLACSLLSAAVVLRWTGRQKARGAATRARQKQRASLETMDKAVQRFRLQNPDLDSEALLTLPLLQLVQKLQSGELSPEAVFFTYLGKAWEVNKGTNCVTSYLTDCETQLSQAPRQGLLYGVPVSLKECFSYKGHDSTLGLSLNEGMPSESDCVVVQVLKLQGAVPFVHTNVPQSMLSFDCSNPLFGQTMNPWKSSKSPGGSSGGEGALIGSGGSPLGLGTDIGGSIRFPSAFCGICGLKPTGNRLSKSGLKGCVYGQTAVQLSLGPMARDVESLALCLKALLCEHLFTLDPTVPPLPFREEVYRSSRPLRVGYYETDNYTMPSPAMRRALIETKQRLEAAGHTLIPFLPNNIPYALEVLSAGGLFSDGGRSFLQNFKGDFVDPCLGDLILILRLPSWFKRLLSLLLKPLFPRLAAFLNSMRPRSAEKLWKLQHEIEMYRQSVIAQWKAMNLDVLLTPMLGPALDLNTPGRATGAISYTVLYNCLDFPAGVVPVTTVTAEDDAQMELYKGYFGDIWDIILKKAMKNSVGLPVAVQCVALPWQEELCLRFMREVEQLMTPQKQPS

[9] = human exposure; ref Calafat et al., 2010; Tefre de Renzy-Martin et al., 2014; cited from earlier work
[10] = as inhibitor concentration increases

`NC(=O)c1cccc(-c2cccc(OC(=O)NC3CCCCC3)c2)c1` [URB597, 3′-carbamoyl-[1,1′-biphenyl]-3-yl cyclohexylcarbamate, reference compound] gave an IC50 [1] of 2200 nM, an IC50 [2] of 730 nM and an IC50 [3] of over 10000 nM. For the same molecule, the “effect on AEA-mediated adipocyte differentiation (Oil Red O)” value [4] was “do not synergize to increase adipocyte differentiation”, the “adipocyte differentiation / lipid accumulation (Oil Red O staining)” value [4] was “only exposure to 10 μM of URB597 resulted in increased lipid accumulation; also recorded: increased differentiation and only at a concentration of 10 μM, not at 50 μM” and the OMP hydrolysis remaining ([5]; 50 nM, mouse brain microsomes) was “less than 20%”. The inhibition at 0.05 µM ([5]; read-out: inhibition of activity (OMP hydrolysis)) was over 80%, the “effect on AEA-induced adipocyte marker expression” value ([6]; 7 days) was “not significantly changed” and the “PPARγ, C/EBPα and FABP4 mRNA expression” value [6] was “increased PPARγ, C/EBPα and FABP4 mRNA expression”.

For `O=C(OCc1ccccc1)c1ccc([N+](=O)[O-])cc1` [Compound 4], the “activity / potency towards FAAH (in words)” value [7] was “completely removed potency”.

For `COc1ccc(C(=O)OCc2ccccc2)cc1` [Compound 2], the “activity / potency towards FAAH (in words)” value [7] was “completely removed potency”.

In the case of `O=C(O)c1ccc(O)cc1` [4-HO-benzoate, 4-hydroxybenzoic acid], the “activity / potency towards FAAH (in words)” value [7] is reported as “completely inactive”.

For `O=C(OCC1CCCCC1)c1ccc(O)cc1` [Compound 5], the “decrease in potency relative to benzylparaben” value ([7]; FAAH IC50, 5 min pre-incubation) was 2 fold.

For `O=C(OCc1ccccc1)c1ccccc1` [Compound 3], the “activity / potency towards FAAH (in words)” value [7] was “completely removed potency”.

In the case of `CCCCC/C=C\C/C=C\C/C=C\C/C=C\CCCC(=O)NCCO` [AEA, arachidonoyl ethanolamide, reference compound], the “expression of markers of differentiation” value ([6]; 3T3-L1, AEA 10 μM, 7 days) is reported as “increased expression of several markers of differentiation (PPARγ and C/EBPα)”.

In the case of `O=C(Nc1ccccc1)N1CCN(Cc2ccc3ccccc3n2)CC1` [PF622, N-phenyl-4-(quinolin-2-ylmethyl)piperazine-1-carboxamide], the “effect on AEA-mediated adipocyte differentiation (Oil Red O)” value [4] is reported as “do not synergize to increase adipocyte differentiation” and the “adipocyte differentiation / lipid accumulation (Oil Red O staining)” value [4] is reported as “had no effects at any of the doses tested”.

For `CCCCOC(=O)c1ccc(O)cc1` [Butylparaben, butylparaben], the IC50 [1] was over 10000 nM, the “time-dependence of FAAH inhibition” value [7] was “independent on incubation time” and the IC50 [2] was over 10000 nM. For the same molecule, the IC50 [3] was over 10000 nM, the “effect on AEA-mediated adipocyte differentiation (Oil Red O)” value [4] was “do not synergize to increase adipocyte differentiation” and the “adipocyte differentiation / lipid accumulation (Oil Red O staining)” value [4] was “dose-dependently enhanced 3T3-L1 adipocyte differentiation”. The IC50 [8] was 1100 nM, the IC50 [5] was 1600 nM and the urinary concentrations [9] was 0.1 to 0.5 µM. For the same molecule, the “effect on AEA-induced adipocyte marker expression” value ([6]; 7 days) was “not significantly changed” and the “PPARγ, C/EBPα and FABP4 mRNA expression” value [6] was “enhanced PPARγ, C/EBPα and FABP4 mRNA expression”.

For `O=C(OCc1ccccc1)c1ccc(O)cc1` [Benzylparaben, benzylparaben], the IC50 [1] was over 10000 nM, the “mechanism of FAAH inhibition” value [7] was “mixed type mechanism” and the Ki ([7]; Ki, linear mixed-type model of inhibition) was 52 ± 14 nM. The “potency relative to URB597 (less potent)” value ([7]; after a 5 min incubation) was 3 fold, the “change in KM app” value [7, 10] was 18 to 98 µM and the “change in Vmax app” value [7, 10] was 5.5 RFU/s to 2.0 RFU/s. For the same molecule, the α value ([7]; linear mixed-type model of inhibition) was 9.7 ± 6.6, the “time-dependence of FAAH inhibition” value [7] was “independent on incubation time” and the Ki ([7]; upper limit of relative Ki, at saturating substrate, mixed-type interaction) was at most 1000 nM. For the same molecule, the IC50 [2] was over 10000 nM, the IC50 [3] was over 10000 nM and the “effect on AEA-mediated adipocyte differentiation (Oil Red O)” value [4] was “do not synergize to increase adipocyte differentiation”. The “adipocyte differentiation / lipid accumulation (Oil Red O staining)” value [4] was “dose-dependently enhanced 3T3-L1 adipocyte differentiation”, the IC50 [8] was 230 nM and the IC50 [5] was 210 nM. The “effect on AEA-induced adipocyte marker expression” value ([6]; 7 days) was “not significantly changed” and the “PPARγ, C/EBPα and FABP4 mRNA expression” value [6] was “enhanced PPARγ, C/EBPα and FABP4 mRNA expression”.

For `CCCCCCCOC(=O)c1ccc(O)cc1` [Compound 6, heptylparaben], the “activity / potency towards FAAH (in words)” value [7] was “no change in potency”.

In the case of `COC(=O)c1ccc(O)cc1` [Methylparaben, methylparaben], the “activity / potency towards FAAH (in words)” value [7] is reported as “completely inactive”.
